Values quoted from earlier work, collected in patent publication EP3653214A1, “IMPROVED DOSAGE REGIMEN FOR URSODEOXYCHOLIC ACID BASED ON ALKALINE PHOSPHATASE LEVELS IN THE TREATMENT OF CHRONIC CHOLESTATIC LIVER DISEASES” (Disphar International B.V., priority 2018, dated 2020).

Details: in vivo

C[C@H](CCC(=O)O)[C@H]1CC[C@H]2[C@@H]3[C@@H](O)C[C@@H]4C[C@H](O)CC[C@]4(C)[C@H]3CC[C@]12C [UDCA, ursodeoxycholic acid]
tolerability: generally well tolerated
